Test results taken from the supplement of paper PMC10307832.

Columns and labels:
Experiment in all cases: relative viability (nuclei count vs DMSO), 5 days (fraction); higher = more cells survive
[1] = compound: CC1=C(C(=NN1)C)CC2=C(C3=C(S2)N(C(=O)N(C3=O)C)CC(C)C)C(=O)N4C[C@@H](CO4)O + CC(=O)c1c(C)c2cnc(Nc3ccc(N4CCNCC4)cn3)nc2n(C2CCCC2)c1=O [Palbociclib] (partner 0.5 µM)
Outline: (§1)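 Dosing by pin tool came one day after lung cancer cell lines were seeded in 1536-well plates, using either one drug or a fixed anchor-drug dose plus five library-drug doses (not always all listed) in √10 steps. After 5 days, nuclei were counted on 4× images. Relative viability is treated-well nuclei count divided by vehicle-well nuclei count, and values are medians of duplicate plates.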

[2] = compound: Cc1ccccc1C(C(=O)NC1CCCCC1)N(C(=O)Cn1ccnc1C)c1cccc(F)c1 [IDH-C35] + CC(=O)c1c(C)c2cnc(Nc3ccc(N4CCNCC4)cn3)nc2n(C2CCCC2)c1=O [Palbociclib] (partner 0.5 µM)
Outline: as §1

[3] = compound: Cc1ccccc1C(C(=O)NC1CCCCC1)N(C(=O)Cn1ccnc1C)c1cccc(F)c1 [IDH-C35] + CS(=O)(=O)N1CCN(Cc2cc3nc(-c4cccc5[nH]ncc45)nc(N4CCOCC4)c3s2)CC1 [Pictilisib] (partner 1 µM)
Outline: as §1

[4] = compound: Cc1ccccc1C(C(=O)NC1CCCCC1)N(C(=O)Cn1ccnc1C)c1cccc(F)c1 [IDH-C35] + O=C(c1cc(Cc2n[nH]c(=O)c3ccccc23)ccc1F)N1CCN(C(=O)C2CC2)CC1 [Olaparib] (partner 8 µM)
Outline: as §1

Cell Line	relative viability ([1]; first compound 0.0025 µM)	relative viability ([1]; first compound 0.007906 µM)	relative viability ([1]; first compound 0.025 µM)	relative viability ([1]; first compound 0.07906 µM)	relative viability ([1]; first compound 0.25 µM)	relative viability ([2]; first compound 0.08 µM)	relative viability ([2]; first compound 0.253 µM)	relative viability ([2]; first compound 0.8 µM)	relative viability ([2]; first compound 8 µM)	relative viability ([3]; first compound 0.08 µM)	relative viability ([3]; first compound 0.253 µM)	relative viability ([3]; first compound 0.8 µM)	relative viability ([3]; first compound 8 µM)	relative viability ([4]; first compound 0.08 µM)	relative viability ([4]; first compound 0.253 µM)	relative viability ([4]; first compound 0.8 µM)	relative viability ([4]; first compound 8 µM)	relative viability ([2]; first compound 2.53 µM)	relative viability ([3]; first compound 2.53 µM)	relative viability ([4]; first compound 2.53 µM)
LCLC-97TM1	0.262	0.266	0.279	0.196	0.247	0.192	0.22	0.213	0.27	0.17	0.168	0.192	0.192	0.322	0.291	0.341	0.47			
LCLC-103H	0.426	0.471	0.508	0.478	0.443	0.498	0.483	0.532	0.484	0.7	0.62	0.536	0.603	0.788	0.71	0.807	0.711	0.518	0.715	0.777
LK-2	0.642	0.715	0.646	0.626	0.457	0.558	0.717	0.683	0.74	0.584	0.501	0.456	0.565	0.842	0.772	0.575	0.73	0.746	0.496	0.701
LOU-NH91	0.535	0.565	0.508	0.496	0.526	0.553	0.558	0.54	0.519	0.528	0.548	0.516	0.531	0.949	0.976	0.888	0.919	0.551	0.496	0.852
LU99A	0.476	0.493	0.41	0.436	0.391	0.38	0.418	0.394	0.403	0.337	0.299	0.326	0.361	0.254	0.247	0.291	0.248	0.398	0.317	0.259
LXF-289	0.525	0.605	0.574	0.586	0.613	0.574	0.584	0.591	0.583	0.813	0.767	0.689	0.725	1.1	0.996	1.03	1.08	0.604	0.85	1.01
NCI-H23	0.508	0.639	0.559	0.518	0.665	0.55	0.494	0.43	0.538	0.473	0.494	0.526	0.456	0.306	0.329	0.33	0.381	0.525	0.397	0.321
NCI-H322M	0.557	0.467	0.536	0.441	0.505	0.523	0.48	0.493	0.49	0.459	0.488	0.471	0.526	0.616	0.796	0.794	0.845	0.493	0.496	0.789
NCI-H358	0.144	0.132	0.12	0.121	0.14	0.134	0.131	0.146	0.123	0.408	0.33	0.317	0.385	0.57	0.491	0.549	0.554	0.148	0.366	0.575
NCI-H441	0.245	0.217	0.255	0.237	0.215	0.183	0.238	0.254	0.224	0.588	0.562	0.456	0.446	0.627	0.638	0.595	0.557	0.242	0.506	0.468
NCI-H460	0.181	0.199	0.204	0.226	0.217	0.23	0.231	0.194	0.12	0.43	0.438	0.325	0.297	0.416	0.419	0.439	0.367	0.233	0.326	0.387
NCI-H520	0.256	0.225	0.259	0.239	0.204	0.206	0.268	0.215	0.23	0.211	0.283	0.283	0.317	0.309	0.284	0.313	0.351	0.225	0.238	0.308
NCI-H647	0.376	0.409	0.441	0.518	0.287	0.47	0.433	0.399	0.397	0.445	0.411	0.339	0.417	0.453	0.516	0.435	0.508	0.347		0.586
NCI-H650	0.345	0.353	0.274	0.334	0.347	0.311	0.343	0.339	0.283	0.926	0.863	0.847	0.851	0.334	0.393	0.366	0.376			
NCI-H661	0.395	0.426	0.455	0.396	0.426	0.433	0.407	0.392	0.384	0.346	0.446	0.404	0.427	0.758	0.743	0.738	0.688	0.41	0.534	0.71
NCI-H727	0.697	0.655	0.676	0.682	0.679	0.671	0.663	0.673	0.574	0.528	0.522	0.54	0.43	0.633	0.873	0.705	0.717	0.66	0.441	0.7

Cell Line	relative viability ([1]; first compound 0.0025 µM)	relative viability ([1]; first compound 0.007906 µM)	relative viability ([1]; first compound 0.025 µM)	relative viability ([1]; first compound 0.07906 µM)	relative viability ([1]; first compound 0.25 µM)	relative viability ([2]; first compound 0.08 µM)	relative viability ([2]; first compound 0.253 µM)	relative viability ([2]; first compound 0.8 µM)	relative viability ([2]; first compound 8 µM)	relative viability ([3]; first compound 0.08 µM)	relative viability ([3]; first compound 0.253 µM)	relative viability ([3]; first compound 0.8 µM)	relative viability ([3]; first compound 8 µM)	relative viability ([4]; first compound 0.08 µM)	relative viability ([4]; first compound 0.253 µM)	relative viability ([4]; first compound 0.8 µM)	relative viability ([4]; first compound 8 µM)	relative viability ([2]; first compound 2.53 µM)	relative viability ([3]; first compound 2.53 µM)	relative viability ([4]; first compound 2.53 µM)
NCI-H838	0.206	0.193	0.182	0.275	0.182	0.24	0.223	0.229	0.211	0.414	0.506	0.453	0.423	0.797	0.787	0.779	0.745	0.22	0.508	0.785
NCI-H1355	0.413	0.459	0.408	0.401	0.414	0.438	0.4	0.393	0.388	0.446	0.442	0.395	0.398	0.71	0.755	0.749	0.73	0.427	0.269	0.741
NCI-H1395	0.682	0.614	0.595	0.606	0.663	0.626	0.605	0.612	0.598	0.601	0.555	0.681	0.697	0.436	0.449	0.473	0.464	0.601	0.603	0.463
NCI-H1437	0.357	0.348	0.284	0.296	0.303	0.346	0.313	0.284	0.294	0.416	0.494	0.476	0.368	0.61	0.649	0.609	0.602	0.316	0.439	0.619
NCI-H1650	0.344	0.351	0.374	0.327	0.347	0.381	0.329	0.355	0.4	0.607	0.576	0.557	0.511	0.783	0.65	0.769	0.757	0.422	0.4	0.588
NCI-H1651	0.54	0.562	0.493	0.532	0.508	0.499	0.505	0.523	0.545	0.562	0.522	0.504	0.434	0.173	0.179	0.181	0.188	0.527	0.492	0.166
NCI-H1666	0.702	0.641	0.734	0.591	0.636	0.678	0.674	0.607	0.645	0.471	0.404	0.322	0.426	0.777	0.795	0.721	0.718	0.682	0.622	0.781
NCI-H1734	0.328	0.396	0.349	0.307	0.322	0.359	0.33	0.352	0.305	0.503	0.499	0.427	0.432	0.585	0.628	0.61	0.588	0.325	0.414	0.634
NCI-H1755	0.452	0.462	0.412	0.424	0.45	0.463	0.412	0.438	0.401	0.451	0.411	0.448	0.412	0.923	0.806	0.884	0.866	0.466	0.452	0.847
NCI-H1792	0.777	0.747	0.665	0.604	0.627	0.711	0.609	0.646	0.673	0.231	0.3	0.251	0.277	0.508	0.444	0.417	0.362	0.679	0.345	0.474
NCI-H1793	0.3	0.36	0.324	0.313	0.3	0.273	0.303	0.356	0.322	0.265	0.336	0.364	0.256	0.934	0.903	0.932	0.859	0.327	0.371	0.862
NCI-H1915	0.563	0.574	0.522	0.532	0.539	0.51	0.527	0.506	0.529	0.976	0.914	0.975	0.914	0.267	0.269	0.245	0.256	0.556	0.934	0.274
NCI-H1944	0.328	0.335	0.337	0.314	0.363	0.376	0.345	0.338	0.323	0.38	0.364	0.323	0.346	0.402	0.429	0.451	0.407	0.317	0.343	0.391
NCI-H1975	0.624	0.706	0.66	0.623	0.699	0.642	0.653	0.606	0.56	0.293	0.322	0.288	0.326	0.809	0.805	0.815	0.735	0.67	0.319	0.8
NCI-H1993	0.689	0.731	0.709	0.597	0.75	0.649	0.504	0.654	0.666	0.902	0.853	0.766	0.712	1.21	1.13	1.03	1.08	0.617	0.743	0.997
NCI-H2009	0.222	0.206	0.221	0.319	0.175	0.25	0.28	0.32	0.147	0.903	0.75	0.907	0.8	0.679	0.74	0.613	0.669	0.227	0.709	0.655
